According to PMC3366278 (Biomaterials, 2012):
Where a SMILES comes first, the peptide text is derived from it.

Target: T1, recombinant human E-selectin (Homo sapiens, UniProt P16581)
T1 sequence (P16581 22-556 limits assumed): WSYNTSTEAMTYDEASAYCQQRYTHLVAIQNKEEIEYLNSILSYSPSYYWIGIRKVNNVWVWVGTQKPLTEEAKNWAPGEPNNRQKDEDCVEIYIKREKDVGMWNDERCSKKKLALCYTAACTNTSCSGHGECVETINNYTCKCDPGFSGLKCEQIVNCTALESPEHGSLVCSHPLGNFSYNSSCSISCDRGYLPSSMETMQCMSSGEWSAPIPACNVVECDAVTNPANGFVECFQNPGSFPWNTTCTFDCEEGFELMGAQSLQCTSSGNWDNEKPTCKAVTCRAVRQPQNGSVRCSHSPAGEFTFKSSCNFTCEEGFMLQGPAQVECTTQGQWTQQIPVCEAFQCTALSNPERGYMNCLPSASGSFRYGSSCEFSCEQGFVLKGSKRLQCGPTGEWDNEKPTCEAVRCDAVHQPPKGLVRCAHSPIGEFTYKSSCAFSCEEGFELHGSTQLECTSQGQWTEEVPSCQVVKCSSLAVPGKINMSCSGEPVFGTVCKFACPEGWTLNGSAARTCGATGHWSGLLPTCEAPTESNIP
Test: Surface plasmon resonance
Format: binding
Conditions: SPR, peptide M versus peptide K

koff relative to peptide K (times faster): 10 times
SMILES: CC[C@H](C)[C@H](NC(=O)[C@H](CC(=O)O)NC(=O)[C@H](CO)NC(=O)CNC(=O)[C@@H](N)CS)C(=O)N[C@H](C(=O)N[C@@H](Cc1c[nH]c2ccccc12)C(=O)N[C@@H](CC(=O)O)C(=O)N[C@@H](CCC(N)=O)C(=O)N[C@@H](CC(C)C)C(=O)N[C@@H](Cc1c[nH]c2ccccc12)C(=O)N[C@@H](CC(=O)O)C(=O)N[C@@H](CC(C)C)C(=O)N[C@@H](CCSC)C(=O)O)[C@@H](C)O [Peptide M, CGSDITWDQLWDLM] (H-CGSDITWDQLWDLM-OH)
